Assay results as given in patent publication US10723699B2 (Hyundai Pharm Co., Ltd., priority 2015, dated 2020).
Like-named read-outs stand apart in the source and are kept apart here.

Molecular target: T1, G protein-coupled receptor 119 (GPR-119) (Mesocricetus auratus, UniProt A0A1U8CD06)
T1 construct: hamster-derived β-cells containing G protein-coupled receptor 119 (GPR-119), HIT-T15 cells; host or cells: HIT-T15 (hamster pancreatic β-cells)
T1 sequence (A0A1U8CD06 1-334): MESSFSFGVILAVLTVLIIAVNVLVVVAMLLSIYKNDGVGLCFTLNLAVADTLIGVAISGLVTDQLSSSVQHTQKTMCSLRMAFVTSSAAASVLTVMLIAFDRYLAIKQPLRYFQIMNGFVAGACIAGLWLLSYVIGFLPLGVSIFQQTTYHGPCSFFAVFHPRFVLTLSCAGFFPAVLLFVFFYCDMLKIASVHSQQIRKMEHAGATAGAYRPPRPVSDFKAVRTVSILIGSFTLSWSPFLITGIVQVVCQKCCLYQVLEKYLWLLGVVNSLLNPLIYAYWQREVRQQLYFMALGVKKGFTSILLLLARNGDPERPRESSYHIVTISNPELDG
Assay: cAMP activity in HIT-T15 cells (cAMP dynamic kit, FRET)
Assay type: cell-based, hamster
Procedure: To check whether the cyclohexene derivatives according to the present invention activate cyclic adenosine monophosphate (cAMP), experiments were carried out, as follows.
The HIT-T15 cells were plated on a 96-well plate at 60,000 cells per well. On the next day of plating, the cells were treated with a varying concentration of each of the example compounds according to the present invention, and incubated at 37° C. for an hour. In this case, each of the treated compounds was used at six concentrations, ranging from 0.0032 to 10 μM, to treat the cells.
The cyclic adenosine monophosphate (cAMP) activity was measured according to the manufacturer's instruction using a cAMP dynamic kit commercially available from Cis Bio Inc. (Bedford, Mass.). The cells were lysed, and a level of cAMP was determined by a competitive immunoassay using D2-labeled cAMP and a cryptate-labeled anti-cAMP antibody. Fluorescence was read in Flex Station (Molecular Devices). […] Unlabeled cAMP in the cell lysate competed with the D2-labeled cAMP against the cryptate-labeled antibody. Since a decrease in the measured intensity of the FRET signals represents a level of cAMP in the cells, the cAMP activities of the compounds are calculated as a change in FRET signals by adjusting an amount of dimethyl sulfoxide (DMSO).

[1] = 1 hour at 37° C., six concentrations 0.0032 to 10 μM, read-out: EC50

SMILES	EC50 [1]	EC50 (Table 2, read-out: EC50 value)	EC50 (EC50 (nM), 1 hour at 37° C., six concentrations 0.0032 to 10 μM)	EC50 (EC50 value, Table 2)
CC(C)OC(=O)N1CCC(COc2ccc(C3=CCC(C(=O)N4CCOCC4)CC3)cc2F)CC1 (stereo not drawn) [Example 444, isopropyl 4-((2-fluoro-4-(4-(morpholine-4-carbonyl)cyclohex-1-enyl)phenoxy)methyl)piperidine-1-carboxylate]	26 nM	≤ 50 nM		
CC(C)c1noc(N2CCC(COc3ccc(C4=CCC(C(=O)N5CCSCC5)CC4)c(F)c3)CC2)n1 (stereo not drawn) [Example 449, (4-(2-fluoro-4-((1-(3-isopropyl-1,2,4-oxadiazol-5-yl)piperidin-4-yl)methoxy)phenyl)cyclohex-3-enyl)(thiomorpholino)methanone]	33 nM	≤ 50 nM		
CCc1cnc(N2CCC(COc3ccc(C4=CCC(C(=O)NCC(F)F)CC4)cc3F)CC2)nc1 (stereo not drawn) [Example 314, N-(2,2-difluoroethyl)-4-(4-((1-(5-ethylpyrimidin-2-yl)piperidin-4-yl)methoxy)-3-fluorophenyl)cyclohex-3-enecarboxamide]	61 nM			
CCc1cnc(N2CCC(COc3ccc(C4=CCC(C(=O)N5CCC(CCO)CC5)CC4)cc3F)CC2)nc1 (single isomer, unassigned; (-)) [Example 430, (−)-(4-(4-((1-(5-ethylpyrimidin-2-yl)piperidin-4-yl)methoxy)-3-fluorophenyl)cyclohex-3-enyl)(4-(2-hydroxyethyl)piperidin-1-yl)methanone]	9 nM	≤ 50 nM		
O=C(NCCO)C1CC=C(c2ccc(OCC3CCN(c4ncc(Br)cn4)CC3)cc2)CC1 (stereo not drawn) [Example 357, 4-(4-((1-(5-bromopyrimidin-2-yl)piperidin-4-yl)methoxy)phenyl)-N-(2-hydroxyethyl)cyclohex-3-enecarboxamide]	150 nM			
CCc1cnc(N2CCC(COc3ccc(C4=CCC(C(=O)N5CCC(C(F)(F)F)CC5)CC4)c(F)c3)CC2)nc1 (stereo not drawn) [Example 452, (4-(4-((1-(5-ethylpyrimidin-2-yl)piperidin-4-yl)methoxy)-2-fluorophenyl)cyclohex-3-enyl)(4-(trifluoromethyl)piperidin-1-yl)methanone]	18 nM	≤ 50 nM		
CCc1cnc(N2CCC(COc3ccc(C4=CCC(C(=O)N5CCCC5)CC4)cc3N)CC2)nc1 (stereo not drawn) [Example 393, (4-(3-amino-4-((1-(5-ethylpyrimidin-2-yl)piperidin-4-yl)methoxy)phenyl)cyclohex-3-enyl)(pyrrolidin-1-yl)methanone]	130 nM			
CCc1cnc(N2CCC(COc3ccc(C4=CCC(C(=O)N5CC(F)(F)C(F)(F)C5)CC4)c(F)c3)CC2)nc1 (single isomer, unassigned; (-)) [Example 463, (−)-(4-(4-((1-(5-ethylpyrimidin-2-yl)piperidin-4-yl)methoxy)-2-fluorophenyl)cyclohex-3-enyl)(3,3,4,4-tetrafluoropyrrolidin-1-yl)methanone]	88 nM			
CC(OC(=O)N1CCC(COc2ccc(C3=CCC(C(=O)N4CCCC4)CC3)cc2F)CC1)C(F)(F)F (stereo not drawn) [Example 406, 1,1,1-trifluoropropan-2-yl 4-((2-fluoro-4-(4-(pyrrolidine-1-carbonyl)cyclohex-1-enyl)phenoxy)methyl)piperidine-1-carboxylate]	36 nM	≤ 50 nM		
CC(C)(C)OC(=O)N1CCC(COc2ccc(C3=CCC(C(=O)N4CCc5ccccc5C4)CC3)cc2)CC1 (stereo not drawn) [Example 239, tert-butyl 4-((4-(4-(1,2,3,4-tetrahydroisoquinoline-2-carbonyl)cyclohex-1-enyl)phenoxy)methyl)piperidine-1-carboxylate]		≤ 50 nM		
O=C(NCCO)C1CC=C(c2ccc(OCC3CCN(c4ccccn4)CC3)cc2)CC1 (stereo not drawn) [Example 358, N-(2-hydroxyethyl)-4-(4-((1-(pyridin-2-yl)piperidin-4-yl)methoxy)phenyl)cyclohex-3-enecarboxamide]	190 nM			
CC(C)(C)OC(=O)N1CCC(COc2ccc(C3=CCC(C(=O)N4CCCC4)CC3)cc2F)CC1 (stereo not drawn) [Example 392, tert-butyl 4-((2-fluoro-4-(4-(pyrrolidine-1-carbonyl)cyclohex-1-enyl)phenoxy)methyl)piperidine-1-carboxylate]	10 nM	≤ 50 nM		
CCc1cnc(N2CCC(COc3ccc(C4=CCC(C(=O)N5CCCC5)CC4)cc3F)CC2)nc1 (single isomer, unassigned; (-)) [Example 429, (−)-(4-(4-((1-(5-ethylpyrimidin-2-yl)piperidin-4-yl)methoxy)-3-fluorophenyl)cyclohex-3-enyl)(pyrrolidin-1-yl)methanone]	21 nM	≤ 50 nM		
CC(C)c1noc(N2CCC(COc3ccc(C4=CCC(C(=O)N5CCC(C(N)=O)CC5)CC4)cc3F)CC2)n1 (stereo not drawn) [Example 361, 1-(4-(3-fluoro-4-((1-(3-isopropyl-1,2,4-oxadiazol-5-yl)piperidin-4-yl)methoxy)phenyl)cyclohex-3-enecarbonyl)piperidine-4-carboxamide]	48 nM	≤ 50 nM		
CC(C)c1noc(N2CCC(COc3ccc(C4=CCC(C(=O)N5CCSCC5)CC4)cn3)CC2)n1 (stereo not drawn) [Example 318, (4-(6-((1-(3-isopropyl-1,2,4-oxadiazol-5-yl)piperidin-4-yl)methoxy)pyridin-3-yl)cyclohex-3-enyl)(thiomorpholino)methanone]	38 nM	≤ 50 nM		
CCCNC(=O)N1CCN(C(=O)C2CC=C(c3ccc(OCC4CCN(c5ncc(CC)cn5)CC4)cc3)CC2)CC1 (stereo not drawn) [Example 412, 4-(4-(4-((1-(5-ethylpyrimidin-2-yl)piperidin-4-yl)methoxy)phenyl)cyclohex-3-enecarbonyl)-N-propylpiperazine-1-carboxamide]	37 nM	≤ 50 nM		
CCc1cnc(N2CCC(COc3ccc(C4=CCC(C(=O)N5CC(F)(F)C(F)(F)C5)CC4)cc3F)CC2)nc1 (stereo not drawn) [Example 460, (4-(4-((1-(5-ethylpyrimidin-2-yl)piperidin-4-yl)methoxy)-3-fluorophenyl)cyclohex-3-enyl)(3,3,4,4-tetrafluoropyrrolidin-1-yl)methanone]	12 nM	≤ 50 nM		
CCc1cnc(N2CCC(COc3ccc(C4=CCC(C(=O)N5CCC(CCO)CC5)CC4)cc3)CC2)nc1 (stereo not drawn) [Example 173, (4-(4-((1-(5-ethylpyrimidin-2-yl)piperidin-4-yl)methoxy)phenyl)cyclohex-3-enyl)(4-(2-hydroxyethyl)piperidin-1-yl)methanone]		≤ 50 nM		
CC(C)(C)OC(=O)N1CCC(COc2ccc(C3=CCC(C(=O)N4CCC(O)CC4)CC3)nc2)CC1 (stereo not drawn) [Example 310, tert-butyl 4-((6-(4-(4-hydroxypiperidine-1-carbonyl)cyclohex-1-enyl)pyridin-3-yloxy)methyl)piperidine-1-carboxylate]	33 nM	≤ 50 nM		
CCc1cnc(N2CCC(COc3ccc(C4=CCC(C(=O)N5CCSCC5)CC4)cc3C)CC2)nc1 (stereo not drawn) [Example 418, (4-(4-((1-(5-ethylpyrimidin-2-yl)piperidin-4-yl)methoxy)-3-methylphenyl)cyclohex-3-enyl)(thiomorpholino)methanone]	35 nM	≤ 50 nM		
CCc1cnc(N2CCC(COc3ccc(C4=CCC(C(=O)N5CCC6(CC5)OCCO6)CC4)cc3F)CC2)nc1 (stereo not drawn) [Example 306, (4-(4-((1-(5-ethylpyrimidin-2-yl)piperidin-4-yl)methoxy)-3-fluorophenyl)cyclohex-3-enyl)(1,4-dioxa-8-azaspiro[4.5]decan-8-yl)methanone]			8.9 nM	≤ 50 nM
CCc1cnc(N2CCC(COc3ccc(C4=CCC(C(=O)N5CCSCC5)CC4)cc3F)CC2)nc1 (stereo not drawn) [Example 300, (4-(4-((1-(5-ethylpyrimidin-2-yl)piperidin-4-yl)methoxy)-3-fluorophenyl)cyclohex-3-enyl)(thiomorpholino)methanone]	8.5 nM	≤ 50 nM		
CC(C)(C)OC(=O)N1CCC(COc2ccc(C3=CCC(C(=O)N4CCSCC4)CC3)nc2)CC1 (stereo not drawn) [Example 328, tert-butyl 4-((6-(4-(thiomorpholine-4-carbonyl)cyclohex-1-enyl)pyridin-3-yloxy)methyl)piperidine-1-carboxylate]	21 nM	≤ 50 nM		
O=C(OC(CF)CF)N1CCC(COc2ccc(C3=CCC(C(=O)N4CCOCC4)CC3)cc2F)CC1 (stereo not drawn) [Example 447, 1,3-difluoropropan-2-yl 4-((2-fluoro-4-(4-(morpholine-4-carbonyl)cyclohex-1-enyl)phenoxy)methyl)piperidine-1-carboxylate]	62 nM			
CCN1CCN(C(=O)C2CC=C(c3ccc(OCC4CCN(c5nc(C(C)C)no5)CC4)c(F)c3)CC2)CC1 (stereo not drawn) [Example 367, (4-ethylpiperazin-1-yl)(4-(3-fluoro-4-((1-(3-isopropyl-1,2,4-oxadiazol-5-yl)piperidin-4-yl)methoxy)phenyl)cyclohex-3-enyl)methanone]	26 nM	≤ 50 nM		
